The values below come from patent US20050215601A1, “Therapeutic agent for rheumatic disease comprising benzamide derivative as active ingredient” (SANTEN PHARMACEUTICAL CO., LTD., priority 2002, published 2005).

For this assay, the system named is type II collagen-induced arthritis of rats. Nature of the assay: Effects on type II collagen-induced arthritis (hind paw volume). In kind it is in vivo, rat. The following applies: rats (female) sensitized with bovine type II collagen; test compound 6 mg/kg orally immediately before, 7 and 14 days after primary sensitization; average of eight per group; FIG. 1. The procedure:
1) Effects on Type II Collagen-Induced Arthritis
Model of type II collagen-induced arthritis has been widely used as an animal model for evaluating effects of drugs on rheumatic diseases (Nature, 283, 666-668 (1980)). Anti-arthritic effects of the present compounds were evaluated and studied according to this model.
A solution of bovine joint cartilage-derived type II collagen in 0.05 N acetic acid (2 mg/ml) was mixed with Freund's incomplete adjuvant of the same volume to prepare an emulsion (final concentration: 1 mg/ml).
As a primary sensitization, this emulsion was injected intradermally into five sites on the back of each rat (female, seven weeks old, weight: approximately 130 to 160 g) at a dose of 100 μl (total 500 μl: corresponding to 500 μg of type II collagen per rat). Seven days after the primary sensitization, 100 μl of this emulsion was injected intradermally into a root of the rat tail again (secondary sensitization). 0.5 ml/kg of a test compound solution (the test compound was dissolved in a 5% carboxymethylcellulose solution as a vehicle) was orally administered immediately before the primary sensitization, 7 days after the primary sensitization and 14 days after the primary sensitization. The dosage of test compound was adjusted to 6 mg/kg. […]

Consider `Nc1ccccc1NC(=O)c1ccc(CNC(=O)COc2cccnc2)cc1` [Test compound 2, N-(2-aminophenyl)-4-[N-(pyridin-3 yl)oxyacetylaminomethyl]benzamide], for which the “increase in hind paw volume” value was “any increase in hind paw volume could not be found”.
